Laboratory results as given in EP1136552A1, “ATP binding cassette transporter 1 (ABC1) gene polymorphisms and uses thereof for the diagnosis and treatment of lipid disorders, cardiovascular diseases and inflammatory diseases” (Bayer Aktiengesellschaft, priority 2000, dated 2001).

Experiments:
mononuclear phagocytes [1] = test: ApoA-I mediated cholesterol efflux from cholesterol-loaded monocytes (14C-cholesterol); type: cell-based, Human; details: ApoA-I 10 µg/ml + 24 h pretreatment with forskolin 10 µM, percent of basal efflux, men and women
Method: Cellular Lipid Efflux. Human peripheral blood cells were isolated from lithium-heparin treated blood samples of adult, healthy volunteers. The peripheral blood mononuclear cell fraction was separated by density gradient centrifugation over Ficoll-Histopaque […] (Sigma). Cells positive for CD2, CD7, CD16, CD19 and CD56 were removed by appropriate magnetic beads (Dynal) leaving > 80% pure monocytes. Isolated monocytes were then cultured at a density of 1.5x10^5 cells/mL in polystyrene culture dishes (100x15mm Petri dish, Falcon) in a serum-free macrophage medium (Macrophage-SFM, Gibco Life Technologies) supplemented with 50ng/mL human recombinant M-CSF (R&D Systems). After an overnight incubation cells were cholesterol loaded for 24 hrs by addition of enzymatically modified LDL (E-LDL; 40 µg/ml), which was prepared as previously described (31). […] Lipids were extracted by liquid extraction according to the method of Bligh and Dyer (13). ^3H and ^14C radioactivities of the total lipid extracts were measured by liquid scintillation counting in order to distinguish between ^3H labeled phospholipids and ^14C-cholesterol. Lipid efflux was calculated as percentage of disintegrations per minute (dpm) in medium divided by the sum of dpm recovered from medium and cells. […]

mononuclear phagocytes [2] = test: ApoA-I mediated efflux of choline containing phospholipids from monocytes (3H-choline); type: cell-based, Human; details: ApoA-I 10 µg/ml + 24 h pretreatment with forskolin 10 µM, percent of basal efflux, men and women
Method: Cellular Lipid Efflux. Human peripheral blood cells were isolated from lithium-heparin treated blood samples of adult, healthy volunteers. The peripheral blood mononuclear cell fraction was separated by density gradient centrifugation over Ficoll-Histopaque […] (Sigma). Cells positive for CD2, CD7, CD16, CD19 and CD56 were removed by appropriate magnetic beads (Dynal) leaving > 80% pure monocytes. Isolated monocytes were then cultured at a density of 1.5x10^5 cells/mL in polystyrene culture dishes (100x15mm Petri dish, Falcon) in a serum-free macrophage medium (Macrophage-SFM, Gibco Life Technologies) supplemented with 50ng/mL human recombinant M-CSF (R&D Systems). After an overnight incubation cells were cholesterol loaded for 24 hrs by addition of enzymatically modified LDL (E-LDL; 40 µg/ml), which was prepared as previously described (31). The incubation medium was further supplemented with ^14C-cholesterol (1.5 µCi/ml) and ^3H-choline (10µCi/ml) in order to label cellular cholesterol and choline containing phospholipids. In a subset of experiments cells were stimulated with 10 µM forskolin during the labeling period. After 24 hrs monocytes were washed and incubated for 17 hrs with or without 10 µg/ml ApoA-I (Sigma) in macrophage medium containing 0.1 % bovine serum albumin and 50ng/mL M-CSF. After incubation the media were removed and centrifuged at 800 x g to precipitate any detached cells. Cells were lysed in 0.2% SDS. Lipids were extracted by liquid extraction according to the method of Bligh and Dyer (13). ^3H and ^14C radioactivities of the total lipid extracts were measured by liquid scintillation counting in order to distinguish between ^3H labeled phospholipids and ^14C-cholesterol. Lipid efflux was calculated as percentage of disintegrations per minute (dpm) in medium divided by the sum of dpm recovered from medium and cells. The ApoA-I specific efflux is expressed a percent of basal unstimulated efflux observed in serum-free macrophage medium without ApoA-I. Statistical Analysis. […]

IL-1β = test: Inhibition of pro-IL-1β processing and IL-1β release; type: cell-based
neutral sphingomyelinase = test: Ceramide formation from sphingomyelin; type: cell-based
human fibroblasts = test: G2-phase cell cycle arrest in fibroblasts; type: cell-based

Caspase I mediated processing of pro-IL-1β and release of mature IL-1β (IL-1β) | ceramide formation from sphingomyelin mediated by neutral sphingomyelinase (neutral sphingomyelinase) | Structure (SMILES) | Cholesterol efflux (mononuclear phagocytes [1]; 596A/A) [%] | Cholesterol efflux (mononuclear phagocytes [1]; wt/wt 596G/G, 2589A/A) [%] | Phospholipid efflux (mononuclear phagocytes [2]; 596A/A) [%] | Phospholipid efflux (mononuclear phagocytes [2]; 2589G/G) [%] | Phospholipid efflux (mononuclear phagocytes [2]; wt/wt 596G/G, 2589A/A) [%] | G2-phase cell cycle arrest (human fibroblasts)
– | – | C=C[C@@]1(C)CC(=O)[C@]2(O)[C@@]3(C)[C@@H](O)CCC(C)(C)[C@@H]3[C@H](O)[C@H](OC(C)=O)[C@@]2(C)O1 [forskolin] | 126.7 ± 37.4 | 121.8 ± 16.4 | 136.7 ± 12.8 | 124.5 ± 25.8 | 135.4 ± 20.2 | –
inhibits | inhibits | COc1ccc(Cl)cc1C(=O)NCCc1ccc(S(=O)(=O)NC(=O)NC2CCCCC2)cc1 [glyburide] | – | – | – | – | – | releases human fibroblasts from G2-phase cell cycle arrest
